Source: patent US20090123447A1, “COMPOSITIONS AND METHODS TO INHIBIT RNA VIRAL REPRODUCTION” (priority 2007, published 2009)

Columns and labels:
[1] = tested on: subgenomic HCV replicon of genotype 1b; experiment: microbe, parasite or virus in culture; format: cell-based, hepatitis C virus
Procedure: Huh7 human hepatoma cells were cultured in Dulbecco's modified Eagle medium (DMEM; Invitrogen, Carlsbad, Calif., USA) supplemented with 10% fetal bovine serum (FBS; Invitrogen), 100 units/ml of penicillin, and 100 μg/ml of streptomycin in a 5% CO2 incubator. SgPC2 cells are G418-selected, pooled Huh7 cell clones that support the continuous replication of a subgenomic HCV replicon of genotype 1b and [29] (GenBank Accession No. AJ242652) that carries a S11791 adaptive mutation within the NS5A region. SgPC2 cells were maintained in the above medium supplemented with 0.5 mg/ml G418 (Invitrogen). G418 was removed at least 1 day before cell treatments.

[2] = tested on: newly synthesized HCV RNA; experiment: 3H labeling of newly synthesized HCV RNA in SgPC2 cells; format: cell-based, hepatitis C virus; settings: 6 h
Procedure: One million SgPC2 cells were pretreated with 2 μM BAPTA-AM or DMSO alone for 1 h and then treated with 0 or 100 μM H2O2 in the presence of 100 μCi of [^3H]uridine (35-50 Ci/mmol; MP Biomedicals, Irvine, Calif., USA) and 4 μg/ml actinomycin D (Sigma-Aldrich) for 5 to 6 h and then lysed for the RNA isolation. RNA was analyzed on a 1% formaldehyde agarose gel, which was then treated with 1 M sodium salicylate for 20-30 min for fluorography. The RNA gel was also stained with ethidium bromide to visualize rRNA bands to serve as loading controls.

[3] = tested on: HCV replication complex (RC); experiment: In vitro HCV replication assay with cytoplasmic lysates of SgPC2 cells; format: cell-based, hepatitis C virus; settings: for effect on the suppression of in vitro HCV replication by H2O2: pretreatment of SgPC2 cells before H2O2
Procedure: In vitro replication assay was carried out according to the protocol of Ali et al., with slight modifications. Briefly, SgPC2 cells were grown to approximately 50-60% confluence in 100-mm dishes. Then, […], and cytoplasmic lysates were prepared by gently lysing the cells in the incomplete replication buffer (prepared without dithiothreitol) immediately after treating the cells with lysolecithin-containing washing solution (150 mM sucrose, 30 mM Hepes, pH 7.4, 33 mM ammonium chloride, 7 mM KCl, 4.5 mM magnesium acetate, 250 μg/ml lysolecithin) for 1-2 min. Twenty to 50 μCi of [α-^32P]CTP (3000 Ci/mmol) and 1-2 μg of actinomycin D were added to 70 μl of these cytoplasmic lysates, and the replication reaction was allowed to proceed for 1 h at 30° C. Then, RNA was isolated by phenol:chloroform extraction and ethanol precipitation. The ^32P-labeled transcripts were then analyzed on a 1% formaldehyde agarose gel which was subsequently washed with H2O, dried, and analyzed with a phosphoimager.

[4] = molecular target: T1, full-length NS5B (Hepatitis C virus genotype 1b, UniProt P26663); experiment: NS5B RdRp assay, de novo RNA synthesis in vitro; format: biochemical
T1 construct: Full-length NS5B protein was purified from Escherichia coli; made in house; host or cells: Escherichia coli
T1 sequence (P26663 2420-3010): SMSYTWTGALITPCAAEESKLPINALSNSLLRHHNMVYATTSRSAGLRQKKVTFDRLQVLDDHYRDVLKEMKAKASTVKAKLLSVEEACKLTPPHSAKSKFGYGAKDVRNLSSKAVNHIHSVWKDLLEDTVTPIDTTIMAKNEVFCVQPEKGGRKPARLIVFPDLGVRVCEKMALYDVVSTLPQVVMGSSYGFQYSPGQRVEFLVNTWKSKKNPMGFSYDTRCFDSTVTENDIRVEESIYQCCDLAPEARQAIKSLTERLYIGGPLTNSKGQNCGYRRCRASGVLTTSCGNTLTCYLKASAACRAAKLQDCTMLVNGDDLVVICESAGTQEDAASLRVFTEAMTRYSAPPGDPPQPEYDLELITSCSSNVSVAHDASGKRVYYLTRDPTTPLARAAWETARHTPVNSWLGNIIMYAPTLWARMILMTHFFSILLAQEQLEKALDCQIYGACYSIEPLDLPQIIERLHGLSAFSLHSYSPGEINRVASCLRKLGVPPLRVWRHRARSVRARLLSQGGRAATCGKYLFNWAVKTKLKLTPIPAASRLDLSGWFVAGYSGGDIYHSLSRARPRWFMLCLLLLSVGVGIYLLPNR
From the text: Full-length NS5B protein was purified from Escherichia coli, as previously described, and was used to catalyze de novo RNA synthesis in vitro [36].

[5] = tested on: JFH1 HCV (genotype 2a); format: cell-based, hepatitis C virus
Procedure: For viral RNA transfection, JFH1, JFH1/GND, and pSGR-JFH1-Luc were linearized with XbaI and used to synthesize the corresponding positive-sense stranded HCV RNA, as previously described (68). Then, 5×10^6 Huh7 cells were rinsed with Opti-Mem (Invitrogen), mixed briefly with 10-20 μg of the in vitro transcribed RNA in 0.4 ml of Opti-Mem, and then electroporated at 260 volts and 950 μF. […] Medium was changed daily. For infection with HCV, medium collected from JFH1 RNA-transfected cells were cleared of cell debris, as described, and added to naïve Huh7 cells. Typically, 1:2 or 3:2 ratio of the virus-containing medium and fresh cell culture medium were used.
JFH1/GND was used as the negative control. When L-buthionine S,R-sulfoximine (BSO) was used, the cells were pretreated with BSO for 16-24 hrs prior to the initiation of treatments.
Intracellular JFH1 HCV RNA content was also analyzed by qRT-PCR (Taqman), using ABI7300 real time PCR system and one step RT-PCR kit from Applied Biosystems. The forward primer was 5′-[…]-3′ (nt. 146 to 164) and the reverse primer, 5′-[…]-3′ (nt. 277 to 295). The probe was 5′[…]3′ (nt. 168 to 188) and was fluorogenically labeled with FAM (5′) and TAMRA (3′) (Biosearch Technologies, Novato, Calif.). Briefly, the reactions were carried out at 48° C. for 30 min for reverse transcription, followed by denaturation at 95° C. for 10 min, and then 50 cycles of 15 sec denaturation at 95° C. plus 60 sec of annealing and extension at 60° C. All samples were analyzed in duplicates or triplicates. In vitro RNA transcripts were used to generate standard curve to determine RNA copy numbers. The level of 18S rRNA was also analyzed, using manufacturer-optimized protocol, as the control.
To analyze the amount of the extracellular HCV RNA, medium from the cells were cleared by low-speed centrifugation and then, treated with RNaseA at room temperature. Then, the RNA samples were extracted, using Trizol LS Reagent (Invitrogen), and analyzed for HCV RNA content by qRT-PCR.

[6] = tested on: intracellular calcium concentration ([Ca^2+]i); experiment: [Ca^2+]i measurement with Indo-1 AM in SgPC2 cells; format: cell-based, human
Procedure: Briefly, on the day of the experiment, cells were washed in Krebs-Ringer phosphate buffer (KRPH; pH 7.4, containing 1.0 mM MgSO4, 1.3 mM CaCl2, 10 mM Hepes, 5 mM glucose, 125 mM NaCl, 5 mM KCl, and 10 mM sodium phosphate) and subsequently loaded with 10-20 μM Indo-1 AM (70 μl/coverslip; Molecular Probes, Inc., Eugene, Oreg., USA) containing 10 μM probenecid (Molecular Probes) for 30 min at 37° C. The attached cells were washed and bathed in KRPH/probenecid at 4° C. or room temperature until further analysis. Then, coverslips were individually submerged into KRPH and preequilibrated inside the […] fluorimeter (Hitachi) in darkness for 3 min, and [Ca^2+]i was monitored continuously at 37° C., with excitation at […] and emission at 400 and 450 nm. H2O2 and other agents were injected at different time points, as indicated under Results. [Ca^2+]i was calculated as described. Rmax was determined by adding 8-16 μM digitonin and Rmin with 10 mM ethylene glycol-bis(β-aminoethyl)-N,N,N'-tetraacetic acid (EGTA). […] The baseline, which represented unstimulated cells scanned over time, was plotted along with other measurements or subtracted from the other plots. Cells were serum-depleted, 1 day before the experiment, by incubating them overnight in DMEM plus 0.5% FBS. […] Then, CaCl2 was added before determining the Rmax for each run.

Compound: CC(=O)OCOC(=O)CN(CC(=O)OCOC(C)=O)c1ccccc1OCCOc1ccccc1N(CC(=O)OCOC(C)=O)CC(=O)OCOC(C)=O [BAPTA-AM, 1,2-bis(2-aminophenoxy)ethane-N,N,N′-tetraacetic acid tetrakis acetoxymethyl ester]
- effect on the suppression of HCV RNA by GO ([1]; SgPC2 cells, GO 24 h, 130-200 U/ml catalase or 2 μM BAPTA-AM): alleviate the suppressive effect of GO
- effect on the suppression of HCV RNA replication by H2O2 ([3H]uridine) ([2]; 2 μM BAPTA-AM pretreatment): completely removed the suppression
- amount of HCV RNA synthesized ([3H]uridine, actinomycin D) [2]: no significant effect
- effect on the suppression of in vitro HCV replication by H2O2 [3]: removed this suppression at both time points tested

Compound: c1ccc2c(c1)[I+]c1ccccc1-2 [DPI, Diphenylene Iodonium, reference compound]
- effect on HCV RNA level / replication [1]: significantly elevated

Compound: [Ca+2].[Cl-].[Cl-] [CaCl2]
- in vitro HCV RNA replication, agent added directly to the cytoplasmic lysates ([3]; added to untreated lysates before assay): could decrease
- in vitro de novo RNA synthesis by NS5B ([4]; 0.1 and 1 μM): only marginally suppressed
- NS5B polymerase activity ([4]; higher concentrations): enhanced the polymerase activity

Compound: N[C@@H](CCC(=O)N[C@@H](CS)C(=O)NCC(=O)O)C(=O)O [GSH, glutathione, reference compound]
- restoration of HCV RNA levels suppressed by BSO [5]: not able to restore HCV replication

Compound: cyclosporin A [reference compound]
- basal calcium or magnitude/kinetics of the peroxide-induced calcium elevation [6]: no effect

Compound: C/C=C(/C)C(=O)O[C@H]1C(C)=C2[C@H]([C@@H]1OC(=O)CCCCCCC)[C@@](C)(OC(C)=O)C[C@H](OC(=O)CCC)[C@@]1(O)[C@H]2OC(=O)[C@@]1(C)O [TG, thapsigargin, reference compound]
- activity at 0.4 µM ([6]; Homo sapiens, 400 nM TG pretreatment 10 min, no extracellular calcium, read-out: peroxide-induced calcium elevation after TG pretreatment, % of control): 58.3 ± 8.4%
- change in [Ca^2+]i ([6]; SgPC2 cells): transient rise
- AUC of TG-induced calcium response in control cells ([6]; no extracellular calcium, no H2O2 pretreatment): 772.3±189.3 Ca^2+/min

Compound: N.N.N.N.N.N.N.N.N.N.N.N.N.N.[Cl-].[Cl-].[Cl-].[Cl-].[Cl-].[Cl-].[O-2].[O-2].[Ru+3].[Ru+3].[Ru+4] [ruthenium red, reference compound]
- basal calcium or magnitude/kinetics of the peroxide-induced calcium elevation [6]: no effect

Compound: C[C@H](CCC(=O)O)C[C@H](C)C[C@H](C)C(=O)/C=C(\O)[C@H](C)C[C@H](C)C/C=C/[C@@H](C)[C@@H](O)[C@@H](C)[C@@H](O)C[C@@H]1CC[C@@](C)([C@H]2CC[C@@](C)([C@@H](C)O)O2)O1 [ionomycin]
- effect on the suppression of in vitro HCV replication by H2O2 [3]: significantly alleviated
